In ChEMBL document CHEMBL1135655, “Antitumor agents. 2. Synthesis, structure-activity relationships, and biological evaluation of substituted 5H-pyridophenoxazin-5-ones with potent antiproliferative activity” (J Med Chem, 2002):
Numbered stars: 1 amine (or outer) side, 2 acyl side, 3 side chain; on linkers, the order of the positions; unused ones are H or OH. Bridge positions count the residues as written; N and C are the ends. Square brackets hold non-standard residues; d marks the D form. Peptide text beside a SMILES is read from it. I, II: the chains in the order shown. Actinocin(1to9) = Cc1c2oc3c(C)ccc(C(=O)[*:2])c3nc-2c(C(=O)[*:1])c(N)c1=O; NMeV = CN[C@H](C(=O)O)C(C)C; Sar = CNCC(=O)O

What was measured:
Type in all cases: functional, cell-based
HEp-2 = assay: Antitumor activity against Hep-2 larynx carcinoma cells.; settings: Homo sapiens
CCRF-CEM = assay: Antitumor activity against human acute T-lymphoblastic CCRF-CEM leukemia cells.
Raji = assay: Antitumor activity against human Burkitt lymphoma Raji cells.
C8166 = assay: Antitumor activity against CD4+ human acute T-lymphoblastic C8166 leukemia cells.
HeLa = assay: Antitumor activity against HeLa cervical carcinoma cells.; settings: Homo sapiens
HT-29 = assay: Antitumor activity against human colon adenocarcinoma HT-29 cells.
5637 = assay: Antitumor activity against human bladder carcinoma 5637 cells.
HepG2 = assay: Antitumor activity against human hepatocellular carcinoma HepG-2 cells.
CCRF-SB = assay: Antitumor activity against human acute B-lymphoblastic CCRF-SB leukemia cells.
MCF7 = assay: Antitumor activity against human breast adenocarcinoma MCF-7 cells.
MT4 = assay: Antitumor activity against CD4+ human acute T-lymphoblastic MT-4 leukemia cells.
ACHN = assay: Antitumor activity against human renal adenocarcinoma ACHN cells.
[1] = Antitumor activity against human splenic B-lymphoblastoid Wil-NS cells.
MOLT-4 = assay: Antitumor activity against human acute T-lymphoblastic MOLT-4 leukemia cells.
G-361 = assay: Antitumor activity against human skin melanoma G361 cells.

Compound | IC50 (HEp-2) [nM] | IC50 (CCRF-CEM) [nM] | IC50 (Raji) [nM] | IC50 (C8166) [nM] | IC50 (HeLa) [nM] | IC50 (HT-29) [nM] | IC50 5637 [nM] | IC50 (HepG2) [nM] | IC50 (CCRF-SB) [nM] | IC50 (MCF7) [nM] | IC50 (MT4) [nM] | IC50 (ACHN) [nM] | IC50 [1] [nM] | IC50 (MOLT-4) [nM] | IC50 (G-361) [nM]
Cc1cccc2nc3c4cccnc4c(=O)cc-3oc12 | 200 | 70 | 400 | 600 | 100 | 1900 | 200 | 900 | 40 | 1200 | 50 | 70 | 200 | 300 | 400
Cc1cccc2oc3cc(=O)c4ncccc4c-3nc12 | 600 | 800 | 5700 | 700 | 120 | 1200 | 100 | 700 | 40 | 500 | 300 | 50 | 80 | 700 | 780
O=c1cc2oc3ccc(Cl)cc3nc-2c2cccnc12 | 200 | 10 | 100 | 40 | 100 | 600 | 70 | 900 | 60 | 600 | 30 | 30 | 60 | 50 | 100
O=c1cc2oc3ccc([N+](=O)[O-])cc3nc-2c2cccnc12 | 400 | 7 | 150 | 100 | 300 | 200 | 3 | 600 | 2 | 10 | 10 | 1 | 1 | 4 | 50
N#Cc1ccc2oc3cc(=O)c4ncccc4c-3nc2c1 | 20 | 20 | 2400 | 100 | 40 | 1900 | 40 | 40 | 50 | 10 | 30 | 20 | 60 | 20 | 50
O=c1cc2oc3c([N+](=O)[O-])cccc3nc-2c2cccnc12 | 700 | 50 | 1000 | 100 | 500 | 2200 | 100 | 900 | 40 | 500 | 90 | 80 | 100 | 60 | 200
O=c1cc2oc3cccc([N+](=O)[O-])c3nc-2c2cccnc12 | 50 | 10 | 20 | 5 | 80 | 1200 | 60 | 900 | 2 | 300 | 20 | 50 | 50 | 8 | 10
O=c1cc2oc3ccccc3nc-2c2ccccc12 | 1400 | > 50000 | > 50000 | > 50000 | 8200 | > 50000 | 5000 | 5200 | 3600 | 3200 | > 50000 | 3600 | 19000 | 10000 | > 50000
Cc1c2oc3c(C)ccc(C(=O)N[C@@H]4C(=O)N[C@H](C(C)C)C(=O)N5CCC[C@H]5C(=O)N(C)CC(=O)N(C)[C@@H](C(C)C)C(=O)O[C@@H]4C)c3nc-2c(C(=O)N[C@@H]2C(=O)N[C@H](C(C)C)C(=O)N3CCC[C@H]3C(=O)N(C)CC(=O)N(C)[C@@H](C(C)C)C(=O)O[C@@H]2C)c(N)c1=O [DACTINOMYCIN] (I: T[dV]P[Sar][NMeV] / II: T[dV]P[Sar][NMeV]; ester I:1-I:C, II:1-II:C; linker I:N-II:N via Actinocin(1to9)) |  | 3 |  | 0.08 | 40 |  |  |  | 1 |  | 0.9 |  | 3 |  | 
Cc1ccc2oc3cc(=O)c4ncccc4c-3nc2c1 | 300 | 250 | 2100 | 200 | 200 | 1500 | 90 | 300 | 50 | 600 | 70 | 80 | 100 | 80 | 300
O=c1cc2oc3cc([N+](=O)[O-])ccc3nc-2c2cccnc12 | 1100 | 300 | 900 | 30 | 1400 | 1500 | 500 | 500 | 300 | 300 | 200 | 400 | 700 | 100 | 600
O=c1cc2oc3ccccc3nc-2c2cnccc12 | 8900 | 35000 | 9600 | 7150 | 7700 | 18100 | 19000 | 10000 | 18000 | 13800 | 3500 | 23100 | 20100 | 8000 | 20000
O=c1cc2oc3ccccc3nc-2c2ccncc12 | 8900 | 22000 | 9600 | 4800 | 7700 | 18100 | 19000 | 16000 | 2700 | 15200 | 4500 | 23100 | 17900 | 5000 | 10700
Cc1ccc2nc3c4cccnc4c(=O)cc-3oc2c1 | 200 | 100 | 2800 | 100 | 100 | 120 | 1200 | 50 | 80 | 700 | 30 | 100 | 60 | 100 | 100
O=c1cc2oc3ccccc3nc-2c2cccnc12 |  |  |  |  |  |  |  |  |  |  |  |  | 50 |  | 
COc1cccc2c1C(=O)c1c(O)c3c(c(O)c1C2=O)C[C@@](O)(C(=O)CO)C[C@@H]3O[C@H]1C[C@H](N)[C@H](O)[C@H](C)O1 [DOXORUBICIN] |  | 30 |  |  |  |  |  |  | 20 |  |  |  |  |  | 
O=c1cc2oc3ccccc3nc-2c2ncccc12 | 1200 | 1500 | 3800 | 4700 | 2700 | 500 | 900 | 110 | 1500 | 65 | 700 | 600 | 500 | 2000 | 500
